Test results reported in US20220389031A1, “MACROCYCLIC SULFONYLAMIDE DERIVATIVES USEFUL AS NLRP3 INHIBITORS” (Inflazome Limited, priority 2019, published 2022).

Target: NLRP3 (Homo sapiens, UniProt Q96P20)
Assay: THP-1 cells pyroptosis assay (LPS + nigericin, resazurin readout)
Type: cell-based
Parameters: Seed THP-1 cells (25,000 cells/well) containing 1.0 μg/ml LPS; host or cells: THP-1 cells
Details: NLRP3 inhibitory activity, 1.0 μg/ml LPS, 3 hrs compound, nigericin 5 μM 1 hr
Description: THP-1 cells (ATCC #TIB-202) were grown in RPMI containing L-glutamine (Gibco #11835) supplemented with 1 mM sodium pyruvate (Sigma #S8636) and penicillin (100 units/ml)/streptomycin (0.1 mg/ml) (Sigma #P4333) in 10% Fetal Bovine Serum (FBS) (Sigma #F0804). The cells were routinely passaged and grown to confluency (˜10^6 cells/ml). On the day of the experiment, THP-1 cells were harvested and resuspended into RPMI medium (without FBS). The cells were then counted and viability (>90%) checked by Trypan blue (Sigma #T8154). Appropriate dilutions were made to give a concentration of 625,000 cells/ml. To this diluted cell solution was added LPS (Sigma #L4524) to give a […] Final Assay Concentration (FAC). 40 μl of the final preparation was aliquoted into each well of a 96-well plate. The plate thus prepared was used for compound screening.
The following method step-by-step assay was followed for compound screening. • 1. Seed THP-1 cells (25,000 cells/well) containing 1.0 μg/ml LPS in 40 μl of RPMI medium (without FBS) in 96-well, black walled, clear bottom cell culture plates coated with poly-D-lysine (VWR #734-0317) • 2. Add 5 μl compound (8 points half-log dilution, with 10 μM top dose) or vehicle (DMSO 0.1% FAC) to the appropriate wells • 3. Incubate for 3 hrs at 37° C., 5% CO2 • 4. Add 5 μl nigericin (Sigma #N7143) (FAC 5 μM) to all wells • 5. Incubate for 1 hr at 37° C., 5% CO2 • 6. At the end of the incubation period, spin plates at 300×g for 3 mins and remove supernatant • 7. Then add 50 μl of resazurin (Sigma #R7017) (FAC 100 μM resazurin in RPMI medium without FBS) and incubate plates for a further 1-2 hrs at 37° C. and 5% CO2 • 8. Plates were read in an Envision reader at Ex 560 nm and Em 590 nm • 9. IC50 data is fitted to a non-linear regression equation (log inhibitor vs response-variable slope 4-parameters)

NLRP3, sequence (Q96P20 whole entry): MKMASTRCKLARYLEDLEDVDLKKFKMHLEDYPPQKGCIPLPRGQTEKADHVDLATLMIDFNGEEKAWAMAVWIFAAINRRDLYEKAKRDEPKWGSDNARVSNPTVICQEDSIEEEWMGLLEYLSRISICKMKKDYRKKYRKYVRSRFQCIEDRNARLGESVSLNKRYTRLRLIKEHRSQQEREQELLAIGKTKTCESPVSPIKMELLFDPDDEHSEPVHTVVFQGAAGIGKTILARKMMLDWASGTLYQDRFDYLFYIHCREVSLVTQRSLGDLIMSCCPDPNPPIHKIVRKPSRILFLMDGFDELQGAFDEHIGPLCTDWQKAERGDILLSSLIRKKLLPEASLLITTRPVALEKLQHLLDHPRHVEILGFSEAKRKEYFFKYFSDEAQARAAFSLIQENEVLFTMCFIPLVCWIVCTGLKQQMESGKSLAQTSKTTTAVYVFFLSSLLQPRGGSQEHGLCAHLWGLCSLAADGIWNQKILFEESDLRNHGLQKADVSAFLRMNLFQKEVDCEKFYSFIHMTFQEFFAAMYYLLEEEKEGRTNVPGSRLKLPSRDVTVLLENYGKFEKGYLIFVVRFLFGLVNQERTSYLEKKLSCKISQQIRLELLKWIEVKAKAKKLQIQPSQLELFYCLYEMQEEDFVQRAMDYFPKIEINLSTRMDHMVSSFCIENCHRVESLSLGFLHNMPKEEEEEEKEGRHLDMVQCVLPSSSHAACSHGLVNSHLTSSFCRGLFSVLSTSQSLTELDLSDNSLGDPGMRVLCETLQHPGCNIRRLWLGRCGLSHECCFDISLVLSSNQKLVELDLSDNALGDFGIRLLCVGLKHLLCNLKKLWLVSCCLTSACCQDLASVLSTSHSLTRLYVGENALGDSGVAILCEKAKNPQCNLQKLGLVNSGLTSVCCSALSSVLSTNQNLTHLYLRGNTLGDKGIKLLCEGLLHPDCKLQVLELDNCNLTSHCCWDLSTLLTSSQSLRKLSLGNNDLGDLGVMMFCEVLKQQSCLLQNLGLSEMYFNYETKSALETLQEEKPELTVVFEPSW

Row | SMILES | IC50
1 | CC1(C)COc2cc(ccn2)-c2ccc3c(c2CC(=O)NS(=O)(=O)c2nn1cc2F)CCC3 [Example 6, 16-fluoro-19,19-dimethyl-21-oxa-14λ^6-thia-13,18,23,27-tetraazapentacyclo[20.3.1.1^15,18.0^2,10.0^5,9]heptacosa-1(25),2,4,9,15(27),16,22(26),23-octaene-12,14,14-trione] | 5000 to 10000 nM
2 | CC(C)c1cccc2c1CC(=O)NS(=O)(=O)c1cccc(c1)CCOc1cc-2ccn1 [Example 7] | 1000 to 5000 nM
3 | CC(C)c1cccc2c1CC(=O)NS(=O)(=O)c1nn(cc1F)CCOc1cc-2ccn1 [Example 8] | 1000 to 5000 nM
4 | O=C1Cc2c(ccc3c2CCC3)-c2ccnc(c2)OCCc2cccc(c2)S(=O)(=O)N1 [Example 9] | 5000 to 10000 nM
5 | CC(C)c1cc(F)cc2c1CC(=O)NS(=O)(=O)c1nn(cc1F)CCOc1cc-2ccn1 [Example 14] | 1000 to 5000 nM
6 | CC(C)c1cc(F)cc2c1CC(=O)NS(=O)(=O)c1cccnc1OCCCOc1cc-2ccn1 [Example 18] | 1000 to 5000 nM
7 | Cc1nn2c(C)c1S(=O)(=O)NC(=O)Cc1c(cc(F)cc1C(C)C)-c1ccnc(c1)OCC2(C)C [Example 23] | 5000 to 10000 nM
8 | CC(C)c1cc(F)cc2c1CC(=O)NS(=O)(=O)c1cc(ccc1F)CCOc1cc-2ccn1 [Example 26] | 1000 to 5000 nM
9 | CC(C)c1cccc2c1CC(=O)NS(=O)(=O)c1cccc(c1)C(C)(C)COc1cc-2ccn1 [Example 28] | 1000 to 5000 nM
10 | CC(C)c1cc(F)cc2c1CC(=O)NS(=O)(=O)c1cc(cc(C3CC3)c1)CCOc1cc-2ccn1 [Example 30, 14-cyclopropyl-4-fluoro-6-(propan-2-yl)-19-oxa-11λ^6-thia-10,21-diazatetracyclo[18.3.1.11^2,16.0^2,7]pentacosa-1(23),2(7),3,5,12(25),13,15,20(24),21-nonaene-9,11,11-trione] | 500 to 1000 nM
11 | CC(C)c1cccc2c1CC(=O)NS(=O)(=O)c1ccnn1CCCCCOc1cc-2ccn1 [Example 43, 6-(propan-2-yl)-22-oxa-11λ^6-thia-10,15,16,24-tetraazatetracyclo-[21.3.1.0^2,7.0^12,16]heptacosa-1(26),2(7),3,5,12,14,23(27),24-octaene-9,11,11-trione] | 1000 to 5000 nM
12 | CC(C)c1cccc2c1CC(=O)NS(=O)(=O)N1CCCC(C1)N(C)CCOc1cc-2ccn1 (centres unmarked) [Example 45, 17-methyl-6-(propan-2-yl)-20-oxa-11λ^6-thia-10,12,17,22-tetraaza-tetracyclo[19.3.1.1^12,16.0^2,7]hexacosa-1(24),2(7),3,5,21(25),22-hexaene-9,11,11-trione] | 1000 to 5000 nM
13 | CC(C)c1cc(C#N)cc2c1CC(=O)NS(=O)(=O)c1cnn(c1)C(C)(C)COc1cc-2ccn1 [Example 46, 6-isopropyl-16,16-dimethyl-9,11,11-trioxo-18-oxa-11λ^6-thia-10,14,15,20-tetrazatetra-cyclo[17.3.1.1^12,15.0^2,7]tetracosa-1(23),2(7),3,5,12(24),13,19,21-octaene-4-carbonitrile] | 1000 to 5000 nM
14 | CC(C)c1cc(OC(F)F)cc2c1CC(=O)NS(=O)(=O)c1cnn(c1)C(C)(C)COc1cc-2ccn1 [Example 47, 4-(difluoromethoxy)-6-isopropyl-16,16-dimethyl-11,11-dioxo-18-oxa-11λ^6-thia-10,14,15,20-tetrazatetracyclo[17-3-1-1^12,15.0^2,7]tetracosa-1(23),2(7),3,5,12(24), 13,19,21-octaen-9-one] | 100 to 500 nM
15 | CC(C)c1c(F)c(C#N)cc2c1CC(=O)NS(=O)(=O)c1cnn(c1)C(C)(C)COc1cc-2ccn1 [Example 48, 5-fluoro-6-isopropyl-16,16-dimethyl-9,11,11-trioxo-18-oxa-11λ^6-thia-10,14,15,20-tetrazatetracyclo[17-3-1-1^12,15.0^2,7]tetracosa-1(23),2(7),3,5,12(24),13,19,21-octaene-4-carbonitrile] | 1000 to 5000 nM
16 | CC(C)c1c(F)c(OC(F)F)cc2c1CC(=O)NS(=O)(=O)c1cnn(c1)C(C)(C)COc1cc-2ccn1 [Example 49, 4-(difluoromethoxy)-5-fluoro-6-isopropyl-16,16-dimethyl-11,11-dioxo-18-oxa-11λ^6-thia-10,14,15,20-tetrazatetracyclo[17.3.1.1^12,15.0^2,7]tetracosa-1(23),2(7),3,5, 12(24),13,19,21-octaen-9-one] | 500 to 1000 nM
17 | CC(C)c1cc(F)cc2c1CC(=O)NS(=O)(=O)c1nn(cc1C(=O)N(C)C)C(C)(C)COc1cc-2ccn1 [Example 50, 4-fluoro-6-isopropyl-N,N,16,16-tetramethyl-9,11,11-trioxo-18-oxa-11λ^6-thia-10,15,20,24-tetrazatetracyclo[17.3.1.1^12,15.0^2,7]tetracosa-1(23),2(7),3,5,12(24),13,19, 21-octaene-13-carboxamide] | 5000 to 10000 nM
18 | COCc1cc2c(c(C(C)C)c1)CC(=O)NS(=O)(=O)c1cnn(c1)C(C)(C)COc1cc-2ccn1 [Example 51, 6-isopropyl-4-(methoxymethyl)-16,16-dimethyl-11,11-dioxo-18-oxa-11λ^6-thia-10,14,15,20-tetrazatetracyclo[17-3-1-1^12,15.0^2,7]tetracosa-1(23),2(7),3,5,12(24),13,19, 21-octaen-9-one] | ≤ 100 nM
19 | COCc1cc2c(c(C(C)C)c1F)CC(=O)NS(=O)(=O)c1cnn(c1)C(C)(C)COc1cc-2ccn1 [Example 52, 5-fluoro-6-isopropyl-4-(methoxymethyl)-16,16-dimethyl-11,11-dioxo-18-oxa-11λ^6-thia-10,14,15,20-tetrazatetracyclo[17.3.1.1^12,15.0^2,7]tetracosa-1(23),2(7),3,5, 12(24),13,19,21-octaen-9-one] | 100 to 500 nM
20 | CC(C)c1cc(F)cc2c1CC(=O)NS(=O)(=O)c1nn(c(CN3CCN(C)CC3)c1F)C(C)(C)COc1cc-2ccn1 [Example 53, 4,13-difluoro-6-isopropyl-16,16-dimethyl-14-[(4-methylpiperazin-1-yl)-methyl]-11,11-dioxo-18-oxa-11λ^6-thia-10,15,20,24-tetrazatetracyclo[17.3.1.1^12,15.0^2,7]-tetracosa-1(23),2(7),3,5,12(24),13,19,21-octaen-9-one] | ≤ 100 nM
21 | CC(C)c1cc(F)cc2c1CC(=O)NS(=O)(=O)c1nn(c(C(=O)N3CCN(C)CC3)c1F)C(C)(C)COc1cc-2ccn1 [Example 54, 4,13-difluoro-6-isopropyl-16,16-dimethyl-14-(4-methylpiperazine-1-carbonyl)-11,11-dioxo-18-oxa-11λ^6-thia-10,15,20,24-tetrazatetracyclo[17.3.1.1^12,15.0^2,7]-tetracosa-1(23),2(7),3,5,12(24),13,19,21-octaen-9-one] | 500 to 1000 nM
22 | CC(C)c1cc(F)cc2c1CC(=O)NS(=O)(=O)c1nn(c(CN3CCOCC3)c1F)C(C)(C)COc1cc-2ccn1 [Example 55, 4,13-difluoro-6-isopropyl-16,16-dimethyl-14-(morpholinomethyl)-11,11-dioxo-18-oxa-11λ^6-thia-10,15,20,24-tetrazatetracyclo[17.3.1.1^12,15.0^2,7]tetracosa-1(23),2(7),3,5,12(24),13,19,21-octaen-9-one] | 100 to 500 nM
23 | CC(C)c1cc(F)cc2c1CC(=O)NS(=O)(=O)c1cnn(c1)C(C)(C)CNc1cc-2ccn1 [Example 56, 4-fluoro-6-isopropyl-16,16-dimethyl-11,11-dioxo-11λ^6-thia-10,14,15,18, 20-pentazatetracyclo[17.3.1.1^12,15.0^2,7]tetracosa-1(23),2(7),3,5,12(24),13,19,21-octaen-9-one] | ≤ 100 nM
